Values joined by “and” are separate entries in the source; they are usually repeats but may differ in a detail not shown here. Equal values may be shown once.
Columns and labels:
[1] = test system: a range of cell types; conditions: cited from earlier work
[2] = test system: C2C12s; assay: Eight-day cell growth by dsDNA quantitation, C2C12s; format: cell-based, mouse; conditions: for Growth of engineered cells: over eight days, vs cells engineered with pGFP or pCrtB
Protocol: (§1) Growth and development of engineered cells—Growth of engineered BSCs and C2C12s was analyzed using a dsDNA quantitation kit (ThermoFisher #F2962) on days 1, 2, 4, 6, and 8 of culture. Cells were plated in 96-well plates for each time-point at a density of 1000 cells/well. At each time-point, media was removed from wells and plates were frozen at −80° C. After all time-points were frozen, plates were thawed to room temperature, and 100 uL of UltraPure water (ThermoFisher #10977023) was added to wells. Plates were incubated at 37° C. for one hour, re-frozen to −80° C., and re-thawed to room temperature. Wells were stained with 100 uL of Hoechst 33258 working solution. Fluorescence was measured with a Synergy H1 microplate reader (BioTek Instruments, Winooski, VT, USA) using excitation and emission filters centered at 360 and 460 nm, respectively. In parallel, a 96-well plate was seeded with a range of known cell densities, incubated for 12 hours, and measured using the same protocol to obtain a standard curve and convert fluorescence values to cell number. […]
(§2) Carotenoid optimization—Two methods were explored for optimizing carotenoid production in pCrtB/I/Y cells. […] To determine an appropriate puromycin concentration for increasing enzyme expression, engineered cells were cultured in media containing 2.5 μg/mL puromycin (1× puro), 5 μg/mL puromycin (2× puro) or 10 μg/mL puromycin (4× puro), and relative GFP expression was determined via flow cytometry as a proximate measure of enzyme expression. Briefly, cells were cultured, harvested, and GFP was analyzed using a BD FACSCalibur (BD Sciences) or Attune N×T (ThermoFisher) flow cytometer. Appropriate gating was performed using pGFP and unmodified cells as positive and negative controls, and mean fluorescent intensity was determined. Data were analyzed with the FlowJo software (v10). […]

[3] = test system: primary bovine satellite cells (BSCs); assay: Carotenoid quantification by quantitative HPLC in engineered BSCs; format: cell-based; conditions: for Effect of ketoconazole and puromycin conditioning on β-carotene: pCrtB/I/Y BSCs
[4] = test system: BSCs; assay: Eight-day cell growth by dsDNA quantitation, BSCs; format: cell-based, bovine; conditions: 5 μg/mL, pCrtB/I/Y BSCs, 8-day growth
Protocol: as §1
Carotenoid optimization—Two methods were explored for optimizing carotenoid production in pCrtB/I/Y cells. […] Briefly, cells were cultured, harvested, and GFP was analyzed using a BD FACSCalibur (BD Sciences) or Attune N×T (ThermoFisher) flow cytometer. […] Data were analyzed with the FlowJo software (v10). […]

[5] = test system: C2C12 mouse skeletal myoblasts; assay: Carotenoid quantification by quantitative HPLC in engineered C2C12s; format: cell-based; conditions: pCrtB/I/Y C2C12s
[6] = test system: bovine satellite cells (BSCs); assay: Adipogenic transdifferentiation of BSCs with free fatty acids (Oil Red O staining); format: cell-based; conditions: 100 uM to 150 uM
Description: This adipogenic transdifferentiation protocol will be further optimized through a fractional factorial experimental design, testing various concentrations oleic, myristoleic, linoleic, erucic, and elaidic acid. Lipid accumulation will be verified qualitatively with Oil Red O staining and quantified with the AdipoRed plate reader assay (Lonza). Transdifferentiation of satellite cells into mature adipocytes will enable muscle and fat components of cultured meat to be generated from a single cell source throughout this proposal, thus increasing project efficiency and impact.

[7] = test system: pCrtB/I/Y C2C12s; assay: GFP expression by flow cytometry under puromycin selection, C2C12s; format: cell-based, mouse; conditions: 4× concentration (10 μg/mL)
Description: as §2, with “cells. The first focused on increasing gene expression by increasing puromycin selective pressure. The second focused on increasing levels of the carotenoid pathway precursor farnesyl pyrophosphate (FPP) by inhibiting downstream reactions in one of FPP's alternative metabolic pathways—cholesterol synthesis—using the small molecule ketoconazole (Sun et al., 2007). By exploring these two approaches, the possibility for a single approach to fail to address a rate-limiting step in carotenoid production was reduced.” for “cells.”

[8] = test system: pCrtB/I/Y BSCs; assay: GFP expression by flow cytometry under puromycin selection, BSCs; format: cell-based, bovine
Description: as §2, with “cells. The first focused on increasing gene expression by increasing puromycin selective pressure. The second focused on increasing levels of the carotenoid pathway precursor farnesyl pyrophosphate (FPP) by inhibiting downstream reactions in one of FPP's alternative metabolic pathways—cholesterol synthesis—using the small molecule ketoconazole (Sun et al., 2007). By exploring these two approaches, the possibility for a single approach to fail to address a rate-limiting step in carotenoid production was reduced.” for “cells.”

[9] = test system: BSCs; assay: Four-day growth of BSCs in serum-free B8 media and FGF-2 dilutions; format: cell-based, bovine; conditions: four days, within B8 media
Protocol: Briefly, B8 media will be comprised of DMEM:F12 (1:1) supplemented with L-ascorbic acid 2-phosphate (200 ug/mL), insulin (20 ug/mL), transferrin (20 ug/mL), sodium selenite (20 ng/mL), FGF-2 (10 ng/mL), neuregulin 1 (NRG-1; 0.1 ng/mL), TGFβ-3 ([…]), and insulin-like growth factor 1 (IGF-1; 10 ng/mL). Formulations absent one or more growth factors will simultaneously generated, as will formulations lacking all growth factors but containing previously reported serum-replacements made from rapeseed peptide fractions, maitake mushroom extract, and silk-derived sericin proteins.

[10] = test system: engineered BSCs; assay: Thiobarbituric acid reactive substances (TBARS) lipid oxidation assay, raw or heated cells; format: cell-based, bovine
Protocol: Lipid oxidation—To analyze the antioxidant functionality of carotenoids in cells, a thiobarbituric acid reactive substances (TBARS) assay was performed. This assay measures malondialdehyde (MDA), a byproduct of unsaturated fatty acid oxidation, and so serves as a measure of lipid oxidation in cells. As lipid oxidation is often catalyzed by the processes that generate oxidative pressure, such as cooking of meat, the TBARS assay was performed on both “raw” cells, and cells that had been heated to mimic cooking. Briefly, engineered BSCs were cultured as previously described, harvested, and counted. 1.5 million cells were aliquoted to tubes for heated or unheated analysis, washed 1× in PBS, pelleted, and the supernatant PBS was removed. Collected cell pellets were stored overnight at 4° C. The next day, samples designated for heating were incubated for 10 minutes in a 100° C. heat block, cooled to room temperature, and placed on ice. All cells (heated and unheated) were suspended in 500 μL of PBS, incubated for 2 hours on ice, and sonicated on ice using a probe sonicator (Branson, St. Louis, MO, USA) at 15% intensity for 5×15 second pulses, with 20 second intervals between pulses. Next, the TBARS assay (Cayman Chemical #700870, Ann Arbor, MI, USA) was performed with 100 μL of sonicated cell lysates, following the manufacturers protocol and determining MDA by measuring absorbance at 535 nm compared to a standard curve of known MDA concentrations. The remainders of the cell lysates were frozen at −80° C. until protein quantification was performed via Bradford assay (ThermoFisher #23200) following the manufacturers protocol. Briefly, 5 μL of cell lysates were incubated for 10 minutes with 250 uL of Coomassie reagent, and the absorbance was measured at 595 nm and compared to a BSA standard curve. TBARS measurements were normalized with protein content for each sample in order to obtain corrected cellular MDA (mg/g protein).

[11] = test system: pCrtB/I/Y BSCs; assay: Pax7 and MHC immunostaining of engineered BSCs before and after differentiation; format: cell-based, bovine
Protocol: Immunofluorescence and cell characterization—To confirm the identity of isolated primary BSCs, cells were stained for Pax7 and Myosin Heavy Chain (MHC) before and after differentiation, respectively. These markers confirm the primary and terminal states of satellite cell myogenesis and therefore act to verify the nature and myogenicity of isolated cells. Proliferative cells and cells after one week of differentiation were fixed with 4% paraformaldehyde (ThermoFisher #AAJ61899AK) for 30 minutes, washed in PBS, permeabilized for 15 minutes using 0.5% Triton X (Sigma #T8787) in PBS, blocked for 45 minutes using 5% goat serum (ThermoFisher #16210064) in PBS with 0.05% sodium azide (Sigma #S2002), and washed with PBS containing 0.1% Tween-20 (Sigma #P1379). […]
Growth and development of engineered cells—Growth of engineered BSCs and C2C12s was analyzed using a dsDNA quantitation kit (ThermoFisher #F2962) on days 1, 2, 4, 6, and 8 of culture. […] Fluorescence was measured with a Synergy H1 microplate reader (BioTek Instruments, Winooski, VT, USA) using excitation and emission filters centered at 360 and 460 nm, respectively. In parallel, a 96-well plate was seeded with a range of known cell densities, incubated for 12 hours, and measured using the same protocol to obtain a standard curve and convert fluorescence values to cell number. […]

[12] = test system: pepsin; conditions: cited from earlier work
[13] = increasing levels of selection antibiotic
[14] = heated samples (10 minutes, 100° C.)

Molecule: C=C(C)[C@@H]1CCC(C)=C[C@H]1c1c(O)cc(CCCCC)cc1O [cannabidiol]
- Treatment range explored without mention of excess cell death [1]: 1-50 uM and 0.313-15.65 ug/mL

Molecule: CC(=O)N1CCN(c2ccc(OCC3COC(Cn4ccnc4)(c4ccc(Cl)cc4Cl)O3)cc2)CC1 (stereo not drawn) [ketoconazole]
- Effect on growth ([2]; 5 μg/mL, pCrtB/I/Y C2C12s, 8-day growth): not significantly effect growth
- Effect of ketoconazole and puromycin conditioning on β-carotene [3]: additive increase in β-carotene
- Effect on growth [4]: not significantly effect growth
- Effect of ketoconazole and puromycin together on β-carotene [5]: do not significantly increase β-carotene

Molecule: CCCCC/C=C\C/C=C\CCCCCCCC(=O)O [linoleic acid]
- Lipid accumulation (Oil Red O) [6]: Sparse lipid accumulation

Molecule: COc1ccc(C[C@H](N)C(=O)N[C@H]2[C@@H](O)[C@H](n3cnc4c(N(C)C)ncnc43)O[C@@H]2CO)cc1 [puromycin]
- Increase in carotenoid levels [3, 13]: ~3 fold
- Effect of ketoconazole and puromycin conditioning on β-carotene [3]: additive increase in β-carotene
- Effect on GFP expression [7]: significant increase in GFP expression
- Effect on GFP expression ([8]; 4× concentration (10 μg/mL), BSCs): significant increase in GFP expression
- Increase in gene expression (as shown by GFP expression) [8, 13]: two-fold
- Effect of ketoconazole and puromycin together on β-carotene [5]: do not significantly increase β-carotene

Molecule: FGF-2: fibroblast growth-factor 2
- FGF-2 concentration showing significantly improved growth vs FGF-2-free B8 media [9]: greater than or equal to 1.25 ng/mL

Molecule: pSBbi-(CMV-CrtB-T2A-)-pur [pCrtB]
- Cellular MDA (lipid oxidation) [10, 14]: 3.6 mg/g protein
- Cellular MDA (lipid oxidation) ([10]; unheated samples): 1.7 mg/g protein

Molecule: pSBbi-(CMV-CrtB-T2A-CrtI-P2A-GFP)-pur [pCrtB/I]
- Growth of engineered cells [2]: higher growth over eight days
- Cellular MDA (lipid oxidation) [10, 14]: 1.7 mg/g protein
- Cellular MDA (lipid oxidation) ([10]; unheated samples): 1.0 mg/g protein

Molecule: pSBbi-(CMV-CrtY-T2A-CrtB-T2A-CrtI-P2A-GFP)-pur [pCrtB/I/Y]
- Growth of engineered cells [2]: higher growth over eight days
- Myogenic potential (Pax7 and MHC staining) [11]: maintenance of Pax7 expression and MHC-positive myotube formation
- Cellular MDA (lipid oxidation) [10, 14]: 2.3 mg/g protein
- Cellular MDA (lipid oxidation) ([10]; unheated samples): 1.1 mg/g protein

B1: V565: anti-TNFα nanobody V565 (SEQ ID NO:7) (protein)
VHH: DVQLVESGGGLVQPGGSLKLSCAASGFDFSSHWMYWVRQAPGKELEWLSEINTNGLITHYGDSVKGRFTVSRNNAANKMYLELTRLEPEDTALYYCARNQHGLNKGQGTQVTVSS
- Sensitivity to pepsin [12]: sensitive to pepsin
- Stability in the gastric environment [12]: largely stable in the gastric environment

Reference: patent US12473536B2, “Cultured meat product with genetically modified cells” (Trustees of Tufts College, priority 2019, dated 2025)
